Test results reported in PubChem BioAssay (NCI).
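Abbreviation: GI50, concentration required for 50% inhibition of growth. Definition used: TGI = concentration required for complete inhibition of growth.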

Key:
Assay in all cases: NCI-60 cell line screen, 384-well format
MDA-MB-231 breast = test system: MDA-MB-231 breast
SF-539 CNS = test system: SF-539 CNS
HOP-62 NSCLC = test system: HOP-62 NSCLC
CCRF-CEM leukemia = test system: CCRF-CEM leukemia
U251 glioblastoma = test system: U251 glioblastoma
SN12C renal = test system: SN12C renal
NCI-H460 NSCLC = test system: NCI-H460 NSCLC
K-562 leukemia = test system: K-562 leukemia
KM12 colon = test system: KM12 colon
NCI-H226 lung = test system: NCI-H226 lung
HCC-2998 colon = test system: HCC-2998 colon
TK-10 renal = test system: TK-10 renal
UACC-62 melanoma = test system: UACC-62 melanoma
NCI/ADR-RES ovarian = test system: NCI/ADR-RES ovarian
OVCAR-5 ovarian = test system: OVCAR-5 ovarian
MDA-MB-468 breast = test system: MDA-MB-468 breast
RXF 393 renal = test system: RXF 393 renal
OVCAR-3 ovarian = test system: OVCAR-3 ovarian
SNB-19 CNS = test system: SNB-19 CNS
NCI-H522 lung = test system: NCI-H522 lung
MOLT-4 leukemia = test system: MOLT-4 leukemia
UO-31 renal = test system: UO-31 renal
786-0 renal = test system: 786-0 renal
HCT-116 colon = test system: HCT-116 colon
OVCAR-4 ovarian = test system: OVCAR-4 ovarian
SF-268 CNS = test system: SF-268 CNS
BT-549 breast = test system: BT-549 breast
NCI-H23 lung = test system: NCI-H23 lung
A549 NSCLC = test system: A549 NSCLC
ACHN renal = test system: ACHN renal
PC-3 prostate = test system: PC-3 prostate
SK-MEL-28 melanoma = test system: SK-MEL-28 melanoma
SK-MEL-5 melanoma = test system: SK-MEL-5 melanoma
OVCAR-8 ovarian = test system: OVCAR-8 ovarian
CAKI-1 renal = test system: CAKI-1 renal
HL-60(TB) leukemia = test system: HL-60(TB) leukemia
MDA-MB-435 melanoma = test system: MDA-MB-435 melanoma
DU-145 prostate = test system: DU-145 prostate
COLO 205 colon = test system: COLO 205 colon
SK-MEL-2 melanoma = test system: SK-MEL-2 melanoma
HOP-92 NSCLC = test system: HOP-92 NSCLC
MALME-3M melanoma = test system: MALME-3M melanoma
NCI-H322M lung = test system: NCI-H322M lung
HT29 colon = test system: HT29 colon
SK-OV-3 ovarian = test system: SK-OV-3 ovarian
HCT-15 colon = test system: HCT-15 colon
SR leukemia = test system: SR leukemia
UACC-257 melanoma = test system: UACC-257 melanoma
MCF7 breast = test system: MCF7 breast
M14 melanoma = test system: M14 melanoma
IGROV1 ovarian = test system: IGROV1 ovarian
A498 renal = test system: A498 renal
LOX IMVI melanoma = test system: LOX IMVI melanoma
RPMI-8226 leukemia = test system: RPMI-8226 leukemia
T-47D breast = test system: T-47D breast
SW-620 colon = test system: SW-620 colon
SF-295 CNS = test system: SF-295 CNS

Nc1ncn([C@H]2C[C@H](OP(=O)(O)OC[C@H]3O[C@@H](n4cnc5c(=O)[nH]c(N)nc54)C[C@@H]3O)[C@@H](CO)O2)c(=O)n1
GI50 (MDA-MB-231 breast): 38.3 µM
TGI (MDA-MB-231 breast): > 100 µM
GI50 (SF-539 CNS): 20.8 µM
TGI (SF-539 CNS): > 100 µM
GI50 (HOP-62 NSCLC): 1.83 µM
TGI (HOP-62 NSCLC): 53.3 µM
GI50 (CCRF-CEM leukemia): 0.0724 µM
TGI (CCRF-CEM leukemia): 1.88 µM
GI50 (U251 glioblastoma): 11.2 µM
TGI (U251 glioblastoma): > 100 µM
GI50 (SN12C renal): 5.84 µM
TGI (SN12C renal): 26.4 µM
GI50 (NCI-H460 NSCLC): 0.763 µM
TGI (NCI-H460 NSCLC): > 100 µM
GI50 (K-562 leukemia): 1.48 µM
TGI (K-562 leukemia): > 100 µM
GI50 (KM12 colon): > 100 µM
TGI (KM12 colon): > 100 µM
GI50 (NCI-H226 lung): 32.7 µM
TGI (NCI-H226 lung): > 100 µM
GI50 (HCC-2998 colon): 2.82 µM
TGI (HCC-2998 colon): > 100 µM
GI50 (TK-10 renal): 32.2 µM
TGI (TK-10 renal): > 100 µM
GI50 (UACC-62 melanoma): 26.6 µM
TGI (UACC-62 melanoma): > 100 µM
GI50 (NCI/ADR-RES ovarian): > 100 µM
TGI (NCI/ADR-RES ovarian): > 100 µM
GI50 (OVCAR-5 ovarian): 77.6 µM
TGI (OVCAR-5 ovarian): > 100 µM
GI50 (MDA-MB-468 breast): 0.0431 µM
TGI (MDA-MB-468 breast): 0.368 µM
GI50 (RXF 393 renal): 1.05 µM
TGI (RXF 393 renal): 6.21 µM
GI50 (OVCAR-3 ovarian): > 100 µM
TGI (OVCAR-3 ovarian): > 100 µM
GI50 (SNB-19 CNS): > 100 µM
TGI (SNB-19 CNS): > 100 µM
GI50 (NCI-H522 lung): 4 µM
TGI (NCI-H522 lung): 71.3 µM
GI50 (MOLT-4 leukemia): 0.0566 µM
TGI (MOLT-4 leukemia): 0.373 µM
GI50 (UO-31 renal): > 100 µM
TGI (UO-31 renal): > 100 µM
GI50 ([…]-0 renal): 3.34 µM
TGI (786-0 renal): 31.1 µM
GI50 (HCT-116 colon): 2.79 µM
TGI (HCT-116 colon): > 100 µM
GI50 (OVCAR-4 ovarian): > 100 µM
TGI (OVCAR-4 ovarian): > 100 µM
GI50 (SF-268 CNS): 12.4 µM
TGI (SF-268 CNS): 56.6 µM
GI50 (BT-549 breast): 6.95 µM
TGI (BT-549 breast): 40.6 µM
GI50 (NCI-H23 lung): > 100 µM
TGI (NCI-H23 lung): > 100 µM
GI50 (A549 NSCLC): 10.8 µM
TGI (A549 NSCLC): > 100 µM
GI50 (ACHN renal): 2.33 µM
TGI (ACHN renal): 83.2 µM
GI50 (PC-3 prostate): 28.4 µM
TGI (PC-3 prostate): > 100 µM
GI50 (SK-MEL-28 melanoma): 26.1 µM
TGI (SK-MEL-28 melanoma): > 100 µM
GI50 (SK-MEL-5 melanoma): 0.437 µM
TGI (SK-MEL-5 melanoma): 10.7 µM
GI50 (OVCAR-8 ovarian): 10.8 µM
TGI (OVCAR-8 ovarian): > 100 µM
GI50 (CAKI-1 renal): 7.79 µM
TGI (CAKI-1 renal): > 100 µM
GI50 (HL-60(TB) leukemia): 1.16 µM
TGI (HL-60(TB) leukemia): 18.2 µM
GI50 (MDA-MB-435 melanoma): 43.6 µM
TGI (MDA-MB-435 melanoma): > 100 µM
GI50 (DU-145 prostate): 33.3 µM
TGI (DU-145 prostate): > 100 µM
GI50 (COLO 205 colon): 68.9 µM
TGI (COLO 205 colon): > 100 µM
GI50 (SK-MEL-2 melanoma): > 100 µM
TGI (SK-MEL-2 melanoma): > 100 µM
GI50 (HOP-92 NSCLC): 54.5 µM
TGI (HOP-92 NSCLC): > 100 µM
GI50 (MALME-3M melanoma): 20.6 µM
TGI (MALME-3M melanoma): > 100 µM
GI50 (NCI-H322M lung): 28.8 µM
TGI (NCI-H322M lung): > 100 µM
GI50 (HT29 colon): 46.5 µM
TGI (HT29 colon): > 100 µM
GI50 (SK-OV-3 ovarian): > 100 µM
TGI (SK-OV-3 ovarian): > 100 µM
GI50 (HCT-15 colon): > 100 µM
TGI (HCT-15 colon): > 100 µM
GI50 (SR leukemia): 6.81 µM
TGI (SR leukemia): 25.5 µM
GI50 (UACC-257 melanoma): > 100 µM
TGI (UACC-257 melanoma): > 100 µM
GI50 (MCF7 breast): 14 µM
TGI (MCF7 breast): > 100 µM
GI50 (M14 melanoma): 0.922 µM
TGI (M14 melanoma): > 100 µM
GI50 (IGROV1 ovarian): > 100 µM
TGI (IGROV1 ovarian): > 100 µM
GI50 (A498 renal): 37.7 µM
TGI (A498 renal): > 100 µM
GI50 (LOX IMVI melanoma): 13.5 µM
TGI (LOX IMVI melanoma): 37.4 µM
GI50 (RPMI-8226 leukemia): 0.0714 µM
TGI (RPMI-8226 leukemia): 0.451 µM
GI50 (T-47D breast): 13 µM
TGI (T-47D breast): 47 µM
GI50 (SW-620 colon): 18.5 µM
TGI (SW-620 colon): > 100 µM
GI50 (SF-295 CNS): > 100 µM
TGI (SF-295 CNS): > 100 µM
